Measured values reported in US20250154212A1, “METHOD OF DISRUPTING MEMORY AND LIPOPEPTIDE FOR USE IN SUCH METHOD” (The Research Foundation for The State University of New York, priority 2023, published 2025).
Where no end group is shown, it is not given here. The star is where a group is joined. Myristoyl = CCCCCCCCCCCCCC(=O)*

Target: T1, KIBRA-PKCι/λ interaction (Homo sapiens, UniProt P41743)
T1 construct: expressed in transfected cells; host or cells: HEK293T
T1 sequence (P41743 10-596): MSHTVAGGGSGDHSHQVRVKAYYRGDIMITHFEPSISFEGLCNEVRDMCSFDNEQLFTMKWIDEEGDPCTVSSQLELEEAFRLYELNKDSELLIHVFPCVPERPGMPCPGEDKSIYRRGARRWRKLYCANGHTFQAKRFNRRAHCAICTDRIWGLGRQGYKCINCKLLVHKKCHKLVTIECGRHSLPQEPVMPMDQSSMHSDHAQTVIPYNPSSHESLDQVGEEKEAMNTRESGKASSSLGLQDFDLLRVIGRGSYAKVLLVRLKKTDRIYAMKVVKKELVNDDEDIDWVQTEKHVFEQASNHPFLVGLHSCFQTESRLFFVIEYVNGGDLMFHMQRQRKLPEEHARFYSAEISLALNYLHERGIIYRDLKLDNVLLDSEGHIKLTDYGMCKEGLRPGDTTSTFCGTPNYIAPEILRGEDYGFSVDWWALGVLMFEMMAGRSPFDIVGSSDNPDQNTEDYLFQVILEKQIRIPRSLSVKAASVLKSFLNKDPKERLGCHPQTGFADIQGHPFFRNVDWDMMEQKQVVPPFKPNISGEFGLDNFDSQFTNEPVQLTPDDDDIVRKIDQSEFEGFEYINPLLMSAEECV
Assay: BiFC assay of KIBRA-PKCι/λ interaction in HEK293T cells
Assay type: cell-based
Conditions: 10 μM
Method: KIBRA-PKMζ BiFC was performed as previously described (28), using pVen1-FLAG-KIBRA and pVen2-HA-PKMζ, in which PKMζ was cloned between EcoR1 and BamH1 sites. The constructs pVen1 and pVen2 encode the N-terminus (amino acids 1-154) and C-terminus (amino acids 155-238) of the Venus protein, respectively, and the Venus fragments were on the N-terminal of the fusion proteins. pVen2-HA-PKMζ[PKCι/λ-P291Q;F297S] was generated by site-directed mutagenesis using forward-cctggagAagcAAatceggatcccccggtCcctgtccgte and reverse-gacggacaggGaccgggggatccggatTTgctTctccagg primers and the QuickChange II XL Site-Directed Mutagenesis Kit (Agilent Technologies), following manufacturer's instructions. Additional pVen2-HA-PKC isoforms and pVen2-HA-CaMKIIα in the pVen2-HA vector were generated by cloning the N-terminus of the coding sequence of each kinase (table S1) to obtain an in-frame fusion at the C-terminus of the pVen2-HA. Human versions of KIBRA and kinases were used, and all PCR amplified sequences and constructs were verified by DNA sequencing.
HEK293T cells were cultured in Dulbecco's Modified Eagle's Medium supplemented with 10% heat-inactivated fetal bovine serum, 100 U/ml penicillin, […] streptomycin, 2 mM glutamine, and 10 mM HEPES in a T75 tissue culture flask with canted neck and ventilated cap. Twenty-four hours prior to transfection, 1×10^5 HEK293T cells in 1 ml of media were plated on poly-D-lysine-treated coverslips in 24-well plates. One hour prior to transfection, 0.5 ml of the media was removed from each well, and ζ-stat or K-ZAP was added to the media that had been removed. The remaining media in each well was then discarded and substituted with the 0.5 ml pre-conditioned media containing ζ-stat or K-ZAP at designated concentrations. For transfection a total of 50 ng of DNA was delivered to each well using Lipofectamine 3000 (Invitrogen) and OptiMEM 1× reduced serum medium (Invitrogen) at a plasmid-to-plasmid ratio of 1:1. The amount of transfected DNA was optimized to produce relatively low concentrations of proteins during overexpression. […]

Compound	effect on KIBRA-PKCι/λ interaction (BiFC) (listed as C-stat)	effect on KIBRA-PKCι/λ interaction (BiFC) (listed as z-stat)	effect on KIBRA-PKCι/λ interaction (BiFC)
O=S(=O)(O)c1cc(O)c2c(S(=O)(=O)O)cc(S(=O)(=O)O)cc2c1 [ζ-stat, 1-naphthol-3,6,8-trisulphonic acid]	no measurable effect	has no effects	–
myr-N-FVRNSLERRSVRMKRPS-C (Myristoyl-FVRNSLERRSVRMKRPS) [K-ZAP]	–	–	not measurably affected
